Experimental data reported in US20110172296A1, “MODULATION OF TRANSFORMING GROWTH FACTOR-BETA 1 EXPRESSION” (priority 2010, published 2011).
Several values for one entry are separate records, joined by “and”; a condition that tells them apart may be missing. Equal entries are not always repeated. In the oligonucleotide strings, read from the 5' end, every base follows the letter of its sugar. An asterisk marks phosphorothioate; unmarked linkages are phosphodiester. Other units and linkages are bracketed, terminal groups are in braces. A string of capitals states the bases alone. e = 2'-O-(2-methoxyethyl) (MOE); [5mC] = 5-methylcytosine; d = 2'-deoxy (DNA)

Test system: human TGF-beta1 mRNA
Assay: Antisense inhibition of human TGF-beta1 mRNA in HuVEC cells, single 10 nM dose, Lipofectamine 2000 (Example 2)
Type: cell-based
Conditions: for % inhibition: 10 nM oligonucleotide, HuVEC, relative to untreated control cells, gapmers targeted to SEQ ID NO: 2; for inhibition of a TGF-beta1 mRNA: threshold lists of Oligo IDs, 10 nM
Method: Antisense oligonucleotides targeted to a TGF-beta1 nucleic acid were tested for their effects on TGF-beta1 mRNA in vitro. Cultured HuVEC cells at a density of 5,000 cells per well were transfected using Lipofectamine™ 2000 reagent with 10 nM antisense oligonucleotide for 4 hours. After a recovery period of approximately 24 hours, RNA was isolated from the cells and TGF-beta1 mRNA levels were measured by quantitative real-time PCR. TGF-beta1 mRNA levels were adjusted according to total RNA content, as measured by RIBOGREEN®. Results are presented as percent inhibition of TGF-beta1, relative to untreated control cells.
The chimeric antisense oligonucleotides in Tables 1 and 2 were designed as 2-13-5 MOE gapmers. Antisense molecules with this motif targeting TGF-beta1 are unique, and represent a novel chemical structure for an ASO directed against this target. The gapmers are 20 nucleotides in length, wherein the central gap segments are comprised of thirteen 2′-deoxynucleotides and are flanked on the 5′ side by wings comprising two nucleotides each and on the 3′ side by wings comprising five nucleotides each. Each nucleotide in the 5′ wing segment and each nucleotide in the 3′ wing segment has a 2′-MOE modification. The internucleoside linkages throughout each gapmer are phosphorothioate (P═S) linkages. All cytosine residues throughout each gapmer are 5-methylcytosines. “Target start site” indicates the 5′-most nucleotide to which the gapmer is targeted. “Target stop site” indicates the 3′-most nucleotide to which the gapmer is targeted. Each gapmer listed in Table 1 is targeted to SEQ ID NO: 1 (GENBANK Accession No. NM_000660.3). Each gapmer listed in Table 2 is targeted to SEQ ID NO: 2 (GENBANK Accession No. NT 011109.15 truncated from 14103000 to […]).

Substance	% inhibition	inhibition of a TGF-beta1 mRNA
414045 (antisense eA*eG*d[5mC]*d[5mC]*dA*dG*dT*dT*dT*d[5mC]*dT*dT*d[5mC]*dT*dG*e[5mC]*e[5mC]*eA*eG*eT) [compound 414045]	80%	60% and 65% and 70% and 75% and 80%
414046 (antisense eG*eT*dG*dA*dA*dA*d[5mC]*dA*d[5mC]*d[5mC]*dG*dA*dG*dG*dA*e[5mC]*eA*e[5mC]*e[5mC]*eT) [compound 414046]	67%	60% and 65%
414047 (antisense e[5mC]*e[5mC]*dT*dG*d[5mC]*d[5mC]*d[5mC]*d[5mC]*dT*dT*dG*dG*dT*dG*dG*eA*eA*eG*e[5mC]*eG) [compound 414047]	41%	
414048 (antisense eG*eG*dT*dT*dT*d[5mC]*d[5mC]*d[5mC]*d[5mC]*dA*dG*d[5mC]*d[5mC]*dA*d[5mC]*e[5mC]*e[5mC]*eT*eG*eA) [compound 414048]	61%	60%
414049 (antisense e[5mC]*eT*dG*dA*dG*dT*dG*dG*dG*dA*dG*d[5mC]*d[5mC]*d[5mC]*d[5mC]*eG*e[5mC]*e[5mC]*e[5mC]*eG) [compound 414049]	53%	
414050 (antisense eT*eT*d[5mC]*d[5mC]*d[5mC]*d[5mC]*dA*dA*dG*dG*d[5mC]*dT*d[5mC]*dT*dG*eA*eA*e[5mC]*e[5mC]*eA) [compound 414050]	82%	60% and 65% and 70% and 75% and 80%
414051 (antisense eG*eT*d[5mC]*dA*dG*dT*dG*dT*dT*dA*dA*dA*dG*dG*dA*eA*e[5mC]*e[5mC]*eT*e[5mC]) [compound 414051]	36%	
414052 (antisense eA*e[5mC]*dA*d[5mC]*dA*dT*dG*dT*dG*d[5mC]*dA*dT*dT*dT*dG*eT*eT*eG*eG*eG) [compound 414052]	52%	
414053 (antisense eT*eT*dG*dG*d[5mC]*d[5mC]*d[5mC]*dG*dG*dA*dG*dG*dT*dT*dA*e[5mC]*eT*e[5mC]*eA*eG) [compound 414053]	52%	
414054 (antisense eT*eG*dA*dA*dG*dT*dT*d[5mC]*dA*dT*dT*d[5mC]*dT*dG*dG*eG*eT*eA*eG*eG) [compound 414054]	51%	
414055 (antisense eA*eT*dT*dA*dG*dT*dT*dT*dT*d[5mC]*d[5mC]*dA*d[5mC]*d[5mC]*d[5mC]*eT*eT*eA*eA*e[5mC]) [compound 414055]	53%	
414056 (antisense eT*eT*dA*dT*dA*d[5mC]*d[5mC]*d[5mC]*dG*dT*dT*dT*dA*dA*dT*eA*eG*eA*eT*eG) [compound 414056]	41%	
414057 (antisense eT*eA*d[5mC]*dA*d[5mC]*dT*dG*dG*dT*d[5mC]*dA*d[5mC]*dT*d[5mC]*dA*eA*eT*e[5mC]*eA*eT) [compound 414057]	58%	
414059 (antisense e[5mC]*eA*dA*dG*dA*d[5mC]*dA*dG*dA*dG*dT*dG*dA*d[5mC]*dT*e[5mC]*eT*eA*eG*eA) [compound 414059]	66%	60% and 65%
414060 (antisense eA*e[5mC]*dA*dG*d[5mC]*dA*dA*dT*dA*dA*d[5mC]*dA*dT*dT*dA*eA*eG*e[5mC]*eT*e[5mC]) [compound 414060]	31%	
414061 (antisense eT*eG*dT*dG*dT*dG*dA*d[5mC]*d[5mC]*dA*dT*dG*dG*dG*d[5mC]*eA*eG*eT*eT*eA) [compound 414061]	69%	60% and 65%

Substance	% inhibition	inhibition of a TGF-beta1 mRNA
414062 (antisense e[5mC]*e[5mC]*d[5mC]*d[5mC]*dT*dA*dA*dA*dA*dT*dG*d[5mC]*dA*dG*dA*eG*eT*eA*eA*eG) [compound 414062]	72%	60% and 65% and 70%
414063 (antisense eA*eA*dG*dT*d[5mC]*dG*dA*d[5mC]*dT*dA*dA*dG*dG*d[5mC]*dT*eG*eG*e[5mC]*eA*e[5mC]) [compound 414063]	80%	60% and 65% and 70% and 75% and 80%
414064 (antisense eT*eG*dT*dG*dA*d[5mC]*d[5mC]*dT*dT*dG*dA*dG*dG*dA*dA*eG*eT*eG*eG*eT) [compound 414064]	61%	60%
414065 (antisense eA*eA*dA*dT*dG*dA*dA*dG*dG*dG*dA*dG*dG*d[5mC]*dG*eA*eT*e[5mC]*eA*eG) [compound 414065]	24%	
414066 (antisense eG*eT*dG*dG*dA*d[5mC]*d[5mC]*dT*dT*dG*dT*dA*dA*d[5mC]*d[5mC]*eA*eG*e[5mC]*e[5mC]*eG) [compound 414066]	80%	60% and 65% and 70% and 75% and 80%
414067 (antisense eT*e[5mC]*d[5mC]*dT*dA*dG*dG*dA*dT*dG*d[5mC]*dA*dA*dA*dG*eA*eG*eT*e[5mC]*eT) [compound 414067]	71%	60% and 65% and 70%
414068 (antisense eT*e[5mC]*dT*dG*d[5mC]*dA*dA*d[5mC]*dA*dT*d[5mC]*d[5mC]*dA*dA*dA*eA*eT*eA*eG*eT) [compound 414068]	53%	
414069 (antisense e[5mC]*eT*dA*dT*dG*dA*dG*dT*dT*dA*dA*d[5mC]*dA*dT*dT*e[5mC]*e[5mC]*e[5mC]*eT*e[5mC]) [compound 414069]	62%	60%
414070 (antisense eG*eA*d[5mC]*dT*dA*dA*dT*dG*dT*dT*d[5mC]*dT*dA*dT*dA*eA*eA*e[5mC]*e[5mC]*e[5mC]) [compound 414070]	54%	
414071 (antisense eT*eA*dG*dA*dA*dG*dT*d[5mC]*dA*dT*dT*dT*d[5mC]*dT*dA*eA*eT*eG*eA*eT) [compound 414071]	0%	
414072 (antisense eG*e[5mC]*d[5mC]*dG*dA*dA*dG*dG*dT*dG*dT*dT*dT*dT*d[5mC]*eT*eT*eG*e[5mC]*e[5mC]) [compound 414072]	48%	
414073 (antisense e[5mC]*eT*dT*d[5mC]*d[5mC]*d[5mC]*d[5mC]*dA*dA*dA*d[5mC]*dA*dG*dG*d[5mC]*eT*eT*e[5mC]*e[5mC]*eA) [compound 414073]	65%	60% and 65%
414074 (antisense eA*eA*dG*dT*dG*dA*d[5mC]*d[5mC]*d[5mC]*d[5mC]*dA*dG*dG*dA*d[5mC]*eA*eA*eA*e[5mC]*eA) [compound 414074]	24%	
414075 (antisense eG*eA*dT*dT*dA*dG*d[5mC]*d[5mC]*dA*dA*dT*d[5mC]*dA*d[5mC]*dT*e[5mC]*eA*eG*eG*eT) [compound 414075]	75%	60% and 65% and 70% and 75%
414076 (antisense eG*eT*dT*d[5mC]*d[5mC]*d[5mC]*d[5mC]*dA*dG*d[5mC]*dT*dA*d[5mC]*d[5mC]*dT*eA*eG*e[5mC]*e[5mC]*eA) [compound 414076]	57%	
414077 (antisense eT*e[5mC]*d[5mC]*dA*dG*dG*d[5mC]*d[5mC]*dT*dT*dT*dG*d[5mC]*dA*d[5mC]*eA*eG*eG*e[5mC]*eT) [compound 414077]	71%	60% and 65% and 70%
